Compound in one assay: Cc1nc(Nc2ncc(C(=O)Nc3c(C)cccc3Cl)s2)cc(N2CCN(CCO)CC2)n1 [DASATINIB]
In words: surviving fraction relative to DMSO-only wells; higher = less growth inhibition. Conditions: exposure time: 5 days. The gist of the method: (§1)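 Lines were retained only if, across three screens, replicate Pearson r was >0.7 and median Z' was >0.3. Viability was measured as CellTiter-Glo luminescence and reported as surviving fraction relative to the median of DMSO-only wells. Readings followed 10 minutes at room temperature, after log-phase tumour cells seeded at 250–500 per well in 384-well plates had been exposed, from 24 hours after seeding, continuously for five days to inhibitors at 0.5, 1, 5, 10, 50, 100, 500 and 1000 nM.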

Compound in assay [1]: COc1cc2ncnc(Nc3ccc(F)c(Cl)c3)c2cc1NC(=O)/C=C/CN1CCCCC1
The description is as above. Conditions: exposure time: 5 days. The procedure, abridged: as §1

The results in this text go back to the supplement of paper PMC6045584.

± gives the standard deviation of the averaged measurements.

Consider HCC38 BREAST, for which the surviving fraction came out at 0.962 ± 0.17 with DASATINIB (0.5 nM); 0.868 ± 0.087 with DASATINIB (1 nM); 0.697 ± 0.043 in the assay with DASATINIB (5 nM); 0.896 ± 0.17 in the assay with DASATINIB (10 nM); 1.01 ± 0.18 with DASATINIB (50 nM); 0.911 ± 0.16 in the assay with DASATINIB (100 nM). For the same test system, the surviving fraction worked out at 0.664 ± 0.1 in the assay with DASATINIB (500 nM); 0.583 ± 0.12 with DASATINIB (1000 nM); 1.02 ± 0.082 in assay [1] (0.5 nM); 1.21 ± 0.21 in assay [1] (1 nM); 1.16 ± 0.044 in assay [1] (5 nM); 1.22 ± 0.26 in assay [1] (10 nM). The surviving fraction in assay [1] (50 nM) amounted to 0.954 ± 0.26; in assay [1] (100 nM), 1.07 ± 0.046; in assay [1] (500 nM), 0.863 ± 0.099; in assay [1] (1000 nM), 0.716 ± 0.06.

HMLE3 BREAST: the surviving fraction came to 0.898 ± 0.042 with DASATINIB (0.5 nM); 0.856 ± 0.067 with DASATINIB (1 nM); 0.856 ± 0.02 with DASATINIB (5 nM); 0.7 ± 0.013 with DASATINIB (10 nM); 0.776 ± 0.029 with DASATINIB (50 nM); 0.716 ± 0.043 with DASATINIB (100 nM). Besides, the surviving fraction was 0.588 ± 0.023 in the assay with DASATINIB (500 nM); 0.553 ± 0.033 with DASATINIB (1000 nM); 0.953 ± 0.036 in assay [1] (0.5 nM); 0.934 ± 0.063 in assay [1] (1 nM); 0.917 ± 0.084 in assay [1] (5 nM); 0.953 ± 0.065 in assay [1] (10 nM). For the same test system, the surviving fraction in assay [1] (50 nM) was 0.921 ± 0.069; in assay [1] (100 nM) it was 0.932 ± 0.052; in assay [1] (500 nM) it was 0.793 ± 0.076; in assay [1] (1000 nM), 0.679 ± 0.035.

For the test system HMT3552 BREAST, the surviving fraction was 0.913 ± 0.043 in the assay with DASATINIB (0.5 nM); 0.848 ± 0.067 in the assay with DASATINIB (1 nM); 0.705 ± 0.013 with DASATINIB (5 nM); 0.612 ± 0.063 in the assay with DASATINIB (10 nM); 0.259 ± 0.0081 with DASATINIB (50 nM); 0.15 ± 0.017 with DASATINIB (100 nM). The surviving fraction with DASATINIB (500 nM) was determined as 0.105 ± 0.0076; with DASATINIB (1000 nM), 0.123 ± 0.021; in assay [1] (0.5 nM), 0.902; in assay [1] (1 nM), 0.831; in assay [1] (5 nM), 0.845; in assay [1] (10 nM) it was 0.802. Besides, the surviving fraction worked out at 0.827 in assay [1] (50 nM), 0.792 in assay [1] (100 nM), 0.65 in assay [1] (500 nM) and 0.302 in assay [1] (1000 nM).

As to HS578T BREAST, the surviving fraction turned out to be 0.862 ± 0.13 in the assay with DASATINIB (0.5 nM); 0.829 ± 0.15 with DASATINIB (1 nM); 0.669 ± 0.051 in the assay with DASATINIB (5 nM); 0.593 ± 0.044 in the assay with DASATINIB (10 nM); 0.343 ± 0.029 with DASATINIB (50 nM); 0.252 ± 0.04 with DASATINIB (100 nM). Also, the surviving fraction with DASATINIB (500 nM) stood at 0.125 ± 0.02; with DASATINIB (1000 nM), 0.126 ± 0.012; in assay [1] (0.5 nM), 1.07 ± 0.1; in assay [1] (1 nM), 1.15 ± 0.14; in assay [1] (5 nM) it was 1.03 ± 0.12; in assay [1] (10 nM), 0.956 ± 0.17. In addition, the surviving fraction in assay [1] (50 nM) was determined as 0.985 ± 0.2; in assay [1] (100 nM), 1.09 ± 0.1; in assay [1] (500 nM) it was 0.688 ± 0.19; in assay [1] (1000 nM), 0.412 ± 0.091.

In the case of HCC70 BREAST, the surviving fraction with DASATINIB (0.5 nM) was 1.03 ± 0.094; in the assay with DASATINIB (1 nM) it was 1.04 ± 0.027; with DASATINIB (5 nM), 1.15 ± 0.1; with DASATINIB (10 nM), 0.996 ± 0.079; in the assay with DASATINIB (50 nM) it was 0.902 ± 0.15; with DASATINIB (100 nM), 0.655 ± 0.057. For the same test system, the surviving fraction was determined as 0.574 ± 0.14 with DASATINIB (500 nM); 0.581 ± 0.16 in the assay with DASATINIB (1000 nM); 1.11 ± 0.059 in assay [1] (0.5 nM); 1.06 ± 0.11 in assay [1] (1 nM); 0.926 ± 0.074 in assay [1] (5 nM); 0.957 ± 0.11 in assay [1] (10 nM). The surviving fraction in assay [1] (50 nM) was determined as 0.956 ± 0.11; in assay [1] (100 nM) it was 0.975 ± 0.049; in assay [1] (500 nM), 0.897 ± 0.091; in assay [1] (1000 nM), 0.842 ± 0.031.

Take G292 BONE: the surviving fraction with DASATINIB (0.5 nM) was 0.94 ± 0.04; in the assay with DASATINIB (1 nM), 0.894 ± 0.036; in the assay with DASATINIB (5 nM), 0.811 ± 0.049; with DASATINIB (10 nM) it was 0.683 ± 0.032; with DASATINIB (50 nM), 0.348 ± 0.013; with DASATINIB (100 nM), 0.269 ± 0.033. The surviving fraction with DASATINIB (500 nM) was 0.213 ± 0.018; with DASATINIB (1000 nM), 0.2077 ± 0.0011; in assay [1] (0.5 nM), 1.03 ± 0.021; in assay [1] (1 nM), 0.979 ± 0.054; in assay [1] (5 nM), 1.05 ± 0.031; in assay [1] (10 nM), 1.02 ± 0.03. In addition, the surviving fraction stood at 0.981 ± 0.052 in assay [1] (50 nM), 0.9292 ± 0.0084 in assay [1] (100 nM), 0.693 ± 0.029 in assay [1] (500 nM) and 0.424 ± 0.013 in assay [1] (1000 nM).
